Key:
[1] = target: IDH1-R132H recombinant protein (Homo sapiens, UniProt O75874, R132H); experiment: IDH1-R132H enzymatic assay (NADPH consumption, diaphorase/resazurin readout); type: biochemical; conditions: read-out: Enzyme IDH1 R132H IC50 Range
Procedure: (§1) Assays were performed in a 384-well black plate. An aliquot of 250 nL of compound was incubated with 10 μL of 30 nM IDH1-R132H or 10 nM IDH1-R132C recombinant protein in assay buffer (50 mM Tris pH=7.5, 150 mM NaCl, 5 mM MgCl2, 0.1% (w/v) Bovine Serum Albumin, and 0.01% Triton X-100) in each well at 25° C. for 15 minutes. After the plate was centrifuged briefly, an aliquot of 10 μL of 2 mM α-ketoglutarate and 20 μM NADPH solution prepared in assay buffer was then added to each well and the reaction was maintained at 25° C. for 45 minutes. An aliquot of 10 μL of diaphorase solution (0.15 U/mL diaphorase and 30 μM Resazurin in assay buffer) was added to each well. […] The IC50 of a given compound was calculated by fitting the dose response curve of inhibition of NADPH consumption at a given concentration with the four parameter logistic equation.

[2] = target: IDH1-R132C recombinant protein (Homo sapiens, UniProt O75874, R132C); experiment: IDH1-R132C enzymatic assay (NADPH consumption, diaphorase/resazurin readout); type: biochemical; conditions: read-out: Enzyme IDH1 R132C IC50 Range
IDH1-R132C recombinant protein, sequence (O75874 whole entry R132C): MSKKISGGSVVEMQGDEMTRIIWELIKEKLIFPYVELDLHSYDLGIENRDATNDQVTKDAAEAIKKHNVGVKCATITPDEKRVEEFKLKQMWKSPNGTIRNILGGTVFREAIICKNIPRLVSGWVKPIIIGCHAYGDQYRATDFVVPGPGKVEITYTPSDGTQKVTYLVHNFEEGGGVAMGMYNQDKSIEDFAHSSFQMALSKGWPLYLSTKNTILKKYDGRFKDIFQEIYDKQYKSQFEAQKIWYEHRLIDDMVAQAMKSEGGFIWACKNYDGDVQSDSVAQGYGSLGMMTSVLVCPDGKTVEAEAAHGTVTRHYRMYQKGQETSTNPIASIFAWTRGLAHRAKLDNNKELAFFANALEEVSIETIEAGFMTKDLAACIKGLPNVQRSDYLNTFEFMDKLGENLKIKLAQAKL
Procedure: as §1

IDH1-R132H recombinant protein, sequence (O75874 whole entry R132H): as the sequence (O75874 whole entry R132C) above, with C132H counted along it

IC50 [1] | IC50 [2] | Compound
100 to 1000 nM | > 1000 nM | COc1cc(NCc2cc3cc(Cl)cc(OCCN4CCOCC4)c3[nH]c2=O)ccc1C#N [Compound I-99, 4-[({6-chloro-8-[2-(morpholin-4-yl)ethoxy]-2-oxo-1,2-dihydroquinolin-3-yl}methyl)amino]-2-methoxybenzonitrile]
10 to 100 nM | > 1000 nM | COc1cc(NCc2cc3cc(Cl)c(OC4CCN(C)CC4)cc3[nH]c2=O)ccc1C#N [Compound I-66, 4-[({6-chloro-7-[(1-methylpiperidin-4-yl)oxy]-2-oxo-1,2-dihydroquinolin-3-yl}methyl)amino]-2-methoxybenzonitrile]
10 to 100 nM | > 1000 nM | COc1cc(NCc2cc3cc(Cl)c(OCC4CCCCN4C)cc3[nH]c2=O)ccc1C#N (stereo not drawn) [Compound I-72, 4-[({6-chloro-7-[(1-methylpiperidin-2-yl)methoxy]-2-oxo-1,2-dihydroquinolin-3-yl}methyl)amino]-2-methoxybenzonitrile]
10 to 100 nM | > 1000 nM | COc1cc(NCc2cc3cc(Cl)c(OCCCN4CCCC4)cc3[nH]c2=O)ccc1C#N [Compound I-83, 4-[({6-chloro-2-oxo-7-[3-(pyrrolidin-1-yl)propoxy]-1,2-dihydroquinolin-3-yl}methyl)amino]-2-methoxybenzonitrile]
100 to 1000 nM | > 1000 nM | COc1cc(NCc2cc3cc(Cl)c(OCCN4CCS(=O)(=O)CC4)cc3[nH]c2=O)ccc1C#N [Compound I-91, 4-[({6-chloro-7-[2-(1,1-dioxo-1λ^6,4-thiomorpholin-4-yl)ethoxy]-2-oxo-1,2-dihydroquinolin-3-yl}methyl)amino]-2-methoxybenzonitrile]
100 to 1000 nM | > 1000 nM | COc1cc(NCc2cc3cc(Cl)c(OCC4CCS(=O)(=O)CC4)cc3[nH]c2=O)ccc1C#N [Compound I-75, 4-[({6-chloro-7-[(1,1-dioxo-1λ^6-thian-4-yl)methoxy]-2-oxo-1,2-dihydroquinolin-3-yl}methyl)amino]-2-methoxybenzonitrile]
– | 100 to 1000 nM | COc1cc(NCc2cc3cc(Cl)c(OCCN4CCOCC4)cc3[nH]c2=O)ccc1C#N [Compound I-60, 4-[({6-chloro-7-[2-(morpholin-4-yl)ethoxy]-2-oxo-1,2-dihydroquinolin-3-yl}methyl)amino]-2-methoxybenzonitrile]
10 to 100 nM | 100 to 1000 nM | COc1cc(NCc2cc3cc(Cl)c(OCc4nccn4C)cc3[nH]c2=O)ccc1C#N [Compound I-78, 4-[({6-chloro-7-[(1-methyl-1H-imidazol-2-yl)methoxy]-2-oxo-1,2-dihydroquinolin-3-yl}methyl)amino]-2-methoxybenzonitrile]
10 to 100 nM | > 1000 nM | COc1cc(NCc2cc3cc(Cl)c(OCCc4ccccn4)cc3[nH]c2=O)ccc1C#N [Compound I-80, 4-[({6-chloro-2-oxo-7-[2-(pyridin-2-yl)ethoxy]-1,2-dihydroquinolin-3-yl}methyl)amino]-2-methoxybenzonitrile]
10 to 100 nM | > 1000 nM | COc1cc2[nH]c(=O)c(CNc3ccc(C#N)c(OC)c3)cc2cc1F [Compound I-26, 4-{[(6-fluoro-7-methoxy-2-oxo-1,2-dihydroquinolin-3-yl)methyl]amino}-2-methoxybenzonitrile]
100 to 1000 nM | > 1000 nM | COc1cc(NCc2cc3cc(Cl)c(OCCn4nc(C)cc4C)cc3[nH]c2=O)ccc1C#N [Compound I-92, 4-[({6-chloro-7-[2-(3,5-dimethyl-1H-pyrazol-1-yl)ethoxy]-2-oxo-1,2-dihydroquinolin-3-yl}methyl)amino]-2-methoxybenzonitrile]
100 to 1000 nM | > 1000 nM | COc1cc(NCc2cc3cc(Cl)cc(OC)c3[nH]c2=O)ccc1C#N [Compound I-97, 4-{[(6-chloro-8-methoxy-2-oxo-1,2-dihydroquinolin-3-yl)methyl]amino}-2-methoxybenzonitrile]
100 to 1000 nM | > 1000 nM | COc1cc(NCc2cc3cc(Cl)c(OCCCN(C)C)cc3[nH]c2=O)ccc1C#N [Compound I-82, 4-[({6-chloro-7-[3-(dimethylamino)propoxy]-2-oxo-1,2-dihydroquinolin-3-yl}methyl)amino]-2-methoxybenzonitrile]
100 to 1000 nM | > 1000 nM | COc1cc(NCc2cc3cc(Cl)cc(OCCN4CCCC4)c3[nH]c2=O)ccc1C#N [Compound I-100, 4-[({6-chloro-2-oxo-8-[2-(pyrrolidin-1-yl)ethoxy]-1,2-dihydroquinolin-3-yl}methyl)amino]-2-methoxybenzonitrile]
10 to 100 nM | 100 to 1000 nM | COc1cc(NCc2cc3cc(Cl)c(OCc4cncn4C)cc3[nH]c2=O)ccc1C#N [Compound I-77, 4-[({6-chloro-7-[(1-methyl-1H-imidazol-5-yl)methoxy]-2-oxo-1,2-dihydroquinolin-3-yl}methyl)amino]-2-methoxybenzonitrile]
10 to 100 nM | 100 to 1000 nM | COc1cc(NCc2cc3cc(Cl)c(OCCn4ccnc4C)cc3[nH]c2=O)ccc1C#N [Compound I-90, 4-[({6-chloro-7-[2-(2-methyl-1H-imidazol-1-yl)ethoxy]-2-oxo-1,2-dihydroquinolin-3-yl}methyl)amino]-2-methoxybenzonitrile]
10 to 100 nM | > 1000 nM | COc1cc(NCc2cc3cc(Cl)cc(OCc4ccccn4)c3[nH]c2=O)ccc1C#N [Compound I-98, 4-({[6-chloro-2-oxo-8-(pyridin-2-ylmethoxy)-1,2-dihydroquinolin-3-yl]methyl}amino)-2-methoxybenzonitrile]

Further lines, the compound ahead of its results:

Compound | IC50 [1] | IC50 [2]
N#Cc1ccc(NCc2cc3cc(Cl)ccc3[nH]c2=O)cc1O [Compound I-8, 4-{[(6-chloro-2-oxo-1,2-dihydroquinolin-3-yl)methyl]amino}-2-hydroxybenzonitrile] | 100 to 1000 nM | > 1000 nM
Cc1cc(NCc2cc3cc(Cl)ccc3[nH]c2=O)ccc1C#N [Compound I-36, 4-{[(6-chloro-2-oxo-1,2-dihydroquinolin-3-yl)methyl]amino}-2-methylbenzonitrile] | 100 to 1000 nM | > 1000 nM
COc1cc(NCc2cc3cc(Cl)c(OCc4ccccc4)cc3[nH]c2=O)ccc1C#N [Compound I-71, 4-({[7-(benzyloxy)-6-chloro-2-oxo-1,2-dihydroquinolin-3-yl]methyl}amino)-2-methoxybenzonitrile] | 10 to 100 nM | > 1000 nM
COc1cc(NCc2cc3cc(Cl)c(OCCc4ccncc4)cc3[nH]c2=O)ccc1C#N [Compound I-81, 4-[({6-chloro-2-oxo-7-[2-(pyridin-4-yl)ethoxy]-1,2-dihydroquinolin-3-yl}methyl)amino]-2-methoxybenzonitrile] | 10 to 100 nM | > 1000 nM
N#Cc1ccc(NCc2cc3cc(Cl)ccc3[nH]c2=O)cc1OC(F)(F)F [Compound I-10, 4-{[(6-chloro-2-oxo-1,2-dihydroquinolin-3-yl)methyl]amino}-2-(trifluoromethoxy)benzonitrile] | 100 to 1000 nM | > 1000 nM
COc1cc(NCc2cc3cc(C(C)(C)C)ccc3[nH]c2=O)ccc1C#N [Compound I-24, 4-{[(6-tert-butyl-2-oxo-1,2-dihydroquinolin-3-yl)methyl]amino}-2-methoxybenzonitrile] | 10 to 100 nM | > 1000 nM
COc1cc(NCc2cc3cc(Cl)c(OCc4ccccn4)cc3[nH]c2=O)ccc1C#N [Compound I-58, 4-({[6-chloro-2-oxo-7-(pyridin-2-ylmethoxy)-1,2-dihydroquinolin-3-yl]methyl}amino)-2-methoxybenzonitrile] | 10 to 100 nM | 100 to 1000 nM
COc1cc(NCc2cc3cc(Cl)c(OCc4cccnc4)cc3[nH]c2=O)ccc1C#N [Compound I-62, 4-({[6-chloro-2-oxo-7-(pyridin-3-ylmethoxy)-1,2-dihydroquinolin-3-yl]methyl}amino)-2-methoxybenzonitrile] | 10 to 100 nM | > 1000 nM
COc1cc(NCc2cc3cc(F)ccc3[nH]c2=O)ccc1C#N [Compound I-27, 4-{[(6-fluoro-2-oxo-1,2-dihydroquinolin-3-yl)methyl]amino}-2-methoxybenzonitrile] | > 1000 nM | > 1000 nM
COc1cc(NC(C)c2cc3cc(Cl)ccc3[nH]c2=O)ccc1C#N (racemic) [Compound I-1, 4-{[1-(6-chloro-2-oxo-1,2-dihydroquinolin-3-yl)ethyl]amino}-2-methoxybenzonitrile] | 10 to 100 nM | 10 to 100 nM
COc1cc(NCc2cc3cc(Cl)ccc3[nH]c2=O)ccc1-n1cnnn1 [Compound I-33, 6-chloro-3-({[3-methoxy-4-(1H-1,2,3,4-tetrazol-1-yl)phenyl]amino}methyl)-1,2-dihydroquinolin-2-one] | 100 to 1000 nM | > 1000 nM
COc1cc(NCc2cc3ccccc3[nH]c2=O)ccc1C#N [Compound I-47, 2-methoxy-4-{[(2-oxo-1,2-dihydroquinolin-3-yl)methyl]amino}benzonitrile] | 100 to 1000 nM | > 1000 nM
COc1cc(NCc2cc3cc(Cl)ccc3[nH]c2=O)cc(OC)c1C#N [Compound I-9, 4-{[(6-chloro-2-oxo-1,2-dihydroquinolin-3-yl)methyl]amino}-2,6-dimethoxybenzonitrile] | 100 to 1000 nM | > 1000 nM
COc1cc(NCc2cc3cc(C)ccc3[nH]c2=O)ccc1C#N [Compound I-50, 2-methoxy-4-{[(6-methyl-2-oxo-1,2-dihydroquinolin-3-yl)methyl]amino}benzonitrile] | 100 to 1000 nM | –

Reference: patent US10266495B2, “Phenyl quinolinone derivatives as mutant-isocitrate dehydrogenase inhibitors” (FORMA TM2, Inc., priority 2014, dated 2019)
